Test results reported in patent US20260345623A1, “NOVEL […] HETEROCYCLIC CARBALDEHYDE COMPOUND AND PHARMACEUTICAL COMPOSITION, CONTAINING SAME, FOR IRE1alpha INHIBITION” (HANMI PHARM. CO., LTD., priority 2022, published 2026).
Like-named read-outs stand apart in the source and are kept apart here.

Molecular target: T1, spliced XBP1 mRNA (target of IRE endonuclease) in MCF-7 cancer cells (Homo sapiens, UniProt O75460)
T1 construct: tunicamycin ER stress; RT-PCR of spliced XBP1 mRNA (RNase domain activity)
Test: Spliced XBP1 mRNA Measurement Test (RT-PCR, tunicamycin-induced ER stress, MCF-7 cells)
Assay type: cell-based
Procedure: A reverse transcription polymerase chain reaction is a test method in which RNA is extracted from cells, reverse transcriptase is used to make cDNA, and relative mRNA expression level is measured through a polymerase chain reaction.
Briefly, MCF-7 cells were seeded in a 12-well plate and cultured in an incubator including 5% CO2 for one day. On the next day, compounds, which were 10-fold serially diluted from 10,000 nM, were pre-treated for 1 hour, and then, treated with 2 μg/mL tunicamycin for 6 or 24 hours to induce endoplasmic reticulum stress, followed by cell lysis to obtain RNA. RNA was subjected to the procedure of RNeasy Kits (Qiagen, 74106), and 5 μg of RNA sample was dissolved in a sample including reverse transcriptase and dNTP, and reverse transcription reaction was performed with a thermal cycler. The amount of mRNA of each of spliced XBP1 and total XBP1 was measured by a polymerase chain reaction through real time PCR by mixing each cDNA sample with a PCR reaction mixture including a primer pair capable of binding specifically to each target and SYBR green dye. The expression level of spliced XBP1 was corrected by the total expression level of XBP1, and the relative expression levels of spliced XBP1 between samples were compared and analyzed.

[1] = 1 hour pre-treatment with compound, 2 μg/mL tunicamycin 6 or 24 hours, spliced XBP1 corrected by total XBP1, read-out: XBP1 mRNA (IC50)
[2] = read-out: XBP1 mRNA (IC50), 1 hour pre-treatment with compound, 2 μg/mL tunicamycin 6 or 24 hours, spliced XBP1 corrected by total XBP1

T1 sequence (O75460 19-977): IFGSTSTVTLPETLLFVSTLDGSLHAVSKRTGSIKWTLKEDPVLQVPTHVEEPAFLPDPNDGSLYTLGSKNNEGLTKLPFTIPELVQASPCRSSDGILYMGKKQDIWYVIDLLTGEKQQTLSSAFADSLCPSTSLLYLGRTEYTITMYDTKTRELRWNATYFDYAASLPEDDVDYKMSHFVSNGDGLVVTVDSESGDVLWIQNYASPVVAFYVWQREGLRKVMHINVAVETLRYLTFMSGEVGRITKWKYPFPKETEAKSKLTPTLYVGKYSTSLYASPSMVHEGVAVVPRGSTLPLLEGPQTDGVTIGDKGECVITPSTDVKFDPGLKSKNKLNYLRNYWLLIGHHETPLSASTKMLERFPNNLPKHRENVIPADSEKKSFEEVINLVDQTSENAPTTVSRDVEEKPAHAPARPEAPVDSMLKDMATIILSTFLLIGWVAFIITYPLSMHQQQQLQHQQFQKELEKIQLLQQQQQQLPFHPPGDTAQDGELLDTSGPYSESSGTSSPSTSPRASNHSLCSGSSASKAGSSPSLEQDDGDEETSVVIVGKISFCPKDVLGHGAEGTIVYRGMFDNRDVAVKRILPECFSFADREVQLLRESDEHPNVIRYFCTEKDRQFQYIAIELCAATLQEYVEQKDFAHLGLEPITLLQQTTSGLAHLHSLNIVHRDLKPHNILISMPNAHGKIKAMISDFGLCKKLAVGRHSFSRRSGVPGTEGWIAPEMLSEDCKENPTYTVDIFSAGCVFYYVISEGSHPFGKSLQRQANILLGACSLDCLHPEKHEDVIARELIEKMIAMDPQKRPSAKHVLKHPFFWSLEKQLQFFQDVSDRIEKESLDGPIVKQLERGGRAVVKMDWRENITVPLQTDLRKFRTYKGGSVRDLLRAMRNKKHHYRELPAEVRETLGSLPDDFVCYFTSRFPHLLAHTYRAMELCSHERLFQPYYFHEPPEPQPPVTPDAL

SMILES | IC50 [1] | IC50 [2]
Cc1c(CC(=O)N2CCOCC2)c(=O)oc2c(C=O)c(O)c3c(c12)CCO3 [Example 1, 4-hydroxy-9-methyl-8-(2-morpholino-2-oxoethyl)-7-oxo-1,7-dihydro-2H-furo[3,2-f]chromene-5-carbaldehyde] | < 100 nM | –
Cc1c(CC(=O)N2CCCC2)c(=O)oc2c(C=O)c(O)c3c(c12)CCCO3 [Example 5, 6-hydroxy-1-methyl-3-oxo-2-(2-oxo-2-(pyrrolidin-1-yl)ethyl)-3,8,9,10-tetrahydropyrano[3,2-f]chromene-5-carbaldehyde] | < 100 nM | –
Cc1c(CC(=O)N2CCN(C)CC2)c(=O)oc2c(C=O)c(O)c3c(c12)CCCO3 [Example 6, 6-hydroxy-1-methyl-2-(2-(4-methylpiperazin-1-yl)-2-oxoethyl)-3-oxo-3,8,9,10-tetrahydropyrano[3,2-f]chromene-5-carbaldehyde] | – | < 100 nM
Cc1c(CC(=O)N2CCN(C(C)C)CC2)c(=O)oc2c(C=O)c(O)c3c(c12)CCCO3 [Example 7, 6-hydroxy-2-(2-(4-isopropylpiperazin-1-yl)-2-oxoethyl)-1-methyl-3-oxo-3,8,9,10-tetrahydropyrano[3,2-f]chromene-5-carbaldehyde] | – | 100 to 200 nM
CCNC(=O)Cc1c(C)c2c3c(c(O)c(C=O)c2oc1=O)OCC3 [Example 8, N-ethyl-2-(5-formyl-4-hydroxy-9-methyl-7-oxo-1,7-dihydro-2H-furo[3,2-f]chromen-8-yl)acetamide] | < 100 nM | –
CCN(CC)C(=O)Cc1c(C)c2c3c(c(O)c(C=O)c2oc1=O)OCC3 [Example 9, N,N-diethyl-2-(5-formyl-4-hydroxy-9-methyl-7-oxo-1,7-dihydro-2H-furo[3,2-f]chromen-8-yl)acetamide] | < 100 nM | –
Cc1c(CC(=O)N2CCC(C)C2)c(=O)oc2c(C=O)c(O)c3c(c12)CCCO3 (stereo not shown) [Example 11, 6-hydroxy-1-methyl-2-(2-(3-methylpyrrolidin-1-yl)-2-oxoethyl)-3-oxo-3,8,9,10-tetrahydropyrano[3,2-f]chromene-5-carbaldehyde] | < 100 nM | –
Cc1c(CC(=O)N2CCC(F)C2)c(=O)oc2c(C=O)c(O)c3c(c12)CCCO3 (stereo not shown) [Example 16, 2-(2-(3-fluoropyrrolidin-1-yl)-2-oxoethyl)-6-hydroxy-1-methyl-3-oxo-3,8,9,10-tetrahydropyrano[3,2-f]chromene-5-carbaldehyde] | > 200 nM | –
CCNC(=O)Cc1c(C)c2c3c(c(O)c(C=O)c2oc1=O)OCCC3 [Example 17, N-ethyl-2-(5-formyl-6-hydroxy-1-methyl-3-oxo-3,8,9,10-tetrahydropyrano[3,2-f]chromen-2-yl)acetamide] | < 100 nM | –
CCc1c(CC(=O)N2CCCC2)c(=O)oc2c(C=O)c(O)c3c(c12)CCCO3 [Example 18, 1-ethyl-6-hydroxy-3-oxo-2-(2-oxo-2-(pyrrolidin-1-yl)ethyl)-3,8,9,10-tetrahydropyrano[3,2-f]chromene-5-carbaldehyde] | > 200 nM | –
Cc1c(CC(=O)N2CCCCC2)c(=O)oc2c(C=O)c(O)c3c(c12)CCCO3 [Example 21, 6-hydroxy-1-methyl-3-oxo-2-(2-oxo-2-(piperidin-1-yl)ethyl)-3,8,9,10-tetrahydropyrano[3,2-f]chromene-5-carbaldehyde] | > 200 nM | –
Cc1c(CC(N)=O)c(=O)oc2c(C=O)c(O)c3c(c12)CCCO3 [Example 22, 2-(5-formyl-6-hydroxy-1-methyl-3-oxo-3,8,9,10-tetrahydropyrano[3,2-f]chromen-2-yl)acetamide] | > 200 nM | –
CCN(CC)C(=O)Cc1c(C)c2c3c(c(O)c(C=O)c2oc1=O)OCCC3 [Example 25, N,N-diethyl-2-(5-formyl-6-hydroxy-1-methyl-3-oxo-3,8,9,10-tetrahydropyrano[3,2-f]chromen-2-yl)acetamide] | < 100 nM | –
CC(=O)N1CCN(C(=O)Cc2c(C)c3c4c(c(O)c(C=O)c3oc2=O)OCCC4)CC1 [Example 26, 2-(2-(4-acetylpiperazin-1-yl)-2-oxoethyl)-6-hydroxy-1-methyl-3-oxo-3,8,9,10-tetrahydropyrano[3,2-f]chromene-5-carbaldehyde] | > 200 nM | –
Cc1c(CC(=O)N2CCSC2)c(=O)oc2c(C=O)c(O)c3c(c12)CCCO3 [Example 30, 6-hydroxy-1-methyl-3-oxo-2-(2-oxo-2-(thiazolidin-3-yl)ethyl)-3,8,9,10-tetrahydropyrano[3,2-f]chromene-5-carbaldehyde] | < 100 nM | –

Second part, led by results:

IC50 [1] | SMILES | IC50 [2]
100 to 200 nM | Cc1c(CC(=O)N2CCOCC2)c(=O)oc2c(C=O)c(O)c3c(c12)OCO3 [Example 2, 4-hydroxy-9-methyl-8-(2-morpholino-2-oxoethyl)-7-oxo-7H-[1,3]dioxolo[4,5-f]chromene-5-carbaldehyde] | –
< 100 nM | Cc1c(CC(=O)N2CCOCC2)c(=O)oc2c(C=O)c(O)c3c(c12)CCCO3 [Example 3, 6-hydroxy-1-methyl-2-(2-morpholino-2-oxoethyl)-3-oxo-3,8,9,10-tetrahydropyrano[3,2-f]chromene-5-carbaldehyde] | –
> 200 nM | Cc1c(CC(=O)N2CCC(C)CC2)c(=O)oc2c(C=O)c(O)c3c(c12)CCCO3 [Example 4, 6-hydroxy-1-methyl-2-(2-(4-methylpiperidin-1-yl)-2-oxoethyl)-3-oxo-3,8,9,10-tetrahydropyrano[3,2-f]chromene-5-carbaldehyde] | –
< 100 nM | Cc1c(CC(=O)N2CCC(F)(F)C2)c(=O)oc2c(C=O)c(O)c3c(c12)CCCO3 [Example 10, 2-(2-(3,3-difluoropyrrolidin-1-yl)-2-oxoethyl)-6-hydroxy-1-methyl-3-oxo-3,8,9,10-tetrahydropyrano[3,2-f]chromene-5-carbaldehyde] | –
100 to 200 nM | Cc1c(CC(=O)N2CCC(C)(C)C2)c(=O)oc2c(C=O)c(O)c3c(c12)CCCO3 [Example 12, 2-(2-(3,3-dimethylpyrrolidin-1-yl)-2-oxoethyl)-6-hydroxy-1-methyl-3-oxo-3,8,9,10-tetrahydropyrano[3,2-f]chromene-5-carbaldehyde] | –
100 to 200 nM | Cc1c(CC(=O)N2CCC2)c(=O)oc2c(C=O)c(O)c3c(c12)CCCO3 [Example 13, 2-(2-(azetidin-1-yl)-2-oxoethyl)-6-hydroxy-1-methyl-3-oxo-3,8,9,10-tetrahydropyrano[3,2-f]chromene-5-carbaldehyde] | –
100 to 200 nM | COC1CCN(C(=O)Cc2c(C)c3c4c(c(O)c(C=O)c3oc2=O)OCCC4)C1 (stereo not shown) [Example 14, 6-hydroxy-2-(2-(3-methoxypyrrolidin-1-yl)-2-oxoethyl)-1-methyl-3-oxo-3,8,9,10-tetrahydropyrano[3,2-f]chromene-5-carbaldehyde] | –
100 to 200 nM | COC1CN(C(=O)Cc2c(C)c3c4c(c(O)c(C=O)c3oc2=O)OCCC4)C1 [Example 15, 6-hydroxy-2-(2-(3-methoxyazetidin-1-yl)-2-oxoethyl)-1-methyl-3-oxo-3,8,9,10-tetrahydropyrano[3,2-f]chromene-5-carbaldehyde] | –
100 to 200 nM | Cc1c(CC(=O)N2CC(F)C2)c(=O)oc2c(C=O)c(O)c3c(c12)CCCO3 [Example 19, 2-(2-(3-fluoroazetidin-1-yl)-2-oxoethyl)-6-hydroxy-1-methyl-3-oxo-3,8,9,10-tetrahydropyrano[3,2-f]chromene-5-carbaldehyde] | –
100 to 200 nM | Cc1c(CC(=O)N2CCC3(CC3)C2)c(=O)oc2c(C=O)c(O)c3c(c12)CCCO3 [Example 20, 6-hydroxy-1-methyl-3-oxo-2-(2-oxo-2-(5-azaspiro[2.4]heptan-5-yl)ethyl)-3,8,9,10-tetrahydropyrano[3,2-f]chromene-5-carbaldehyde] | –
100 to 200 nM | CC(C)c1c(CC(=O)N2CCCC2)c(=O)oc2c(C=O)c(O)c3c(c12)CCCO3 [Example 23, 6-hydroxy-1-isopropyl-3-oxo-2-(2-oxo-2-(pyrrolidin-1-yl)ethyl)-3,8,9,10-tetrahydropyrano[3,2-f]chromene-5-carbaldehyde] | –
< 100 nM | COCCNC(=O)Cc1c(C)c2c3c(c(O)c(C=O)c2oc1=O)OCCC3 [Example 24, 2-(5-formyl-6-hydroxy-1-methyl-3-oxo-3,8,9,10-tetrahydropyrano[3,2-f]chromen-2-yl)-N-(2-methoxyethyl)acetamide] | –
< 100 nM | Cc1c(CC(=O)N2CC3CC2CO3)c(=O)oc2c(C=O)c(O)c3c(c12)CCCO3 (stereo not shown) [Example 27, 2-(2-(2-oxa-5-azabicyclo[2.2.1]heptan-5-yl)-2-oxoethyl)-6-hydroxy-1-methyl-3-oxo-3,8,9,10-tetrahydropyrano[3,2-f]chromene-5-carbaldehyde] | –
100 to 200 nM | Cc1c(CC(=O)N2CCSCC2)c(=O)oc2c(C=O)c(O)c3c(c12)CCCO3 [Example 28, 6-hydroxy-1-methyl-3-oxo-2-(2-oxo-2-thiomorpholinoethyl)-3,8,9,10-tetrahydropyrano[3,2-f]chromene-5-carbaldehyde] | –
> 200 nM | Cc1c(CC(=O)NCCN2CCOCC2)c(=O)oc2c(C=O)c(O)c3c(c12)CCCO3 [Example 29, 2-(5-formyl-6-hydroxy-1-methyl-3-oxo-3,8,9,10-tetrahydropyrano[3,2-f]chromen-2-yl)-N-(2-morpholinoethyl)acetamide] | –
> 200 nM | Cc1c(CC(=O)N2CCNCC2)c(=O)oc2c(C=O)c(O)c3c(c12)CCCO3 [Example 31, 6-hydroxy-1-methyl-3-oxo-2-(2-oxo-2-(piperazin-1-yl)ethyl)-3,8,9,10-tetrahydropyrano[3,2-f]chromene-5-carbaldehyde] | –
